Source: publication PMC6161897, “The novel NADPH oxidase 4 selective inhibitor GLX7013114 counteracts human islet cell death in vitro” (PLoS ONE, 2018)

Key:
caspase 3 = test: Cleaved caspase 3 immunofluorescence in human islets; type: cell-based; conditions: palmitate + high glucose 24h, same inhibitor concentrations as Fig 3
Nox2 = conditions: cited from earlier work
XO = conditions: cited from earlier work
all Nox enzymes = conditions: cited from earlier work
[1] = cited from earlier work
human islet = conditions: cited from earlier work
human islet cells [2] = test: Human islet cell viability (PI/bisbenzimide ratio); type: cell-based; conditions: for human islet cell death, cytokines: IL-1β + IFN-γ 20 ng/ml each; for human islet cell death, cytokines / human islet cell death, high glucose + palmitate: 48h, ML171 2 μM, Phox-I2 2 μM, GLX7013114 1 μM; for human islet cell death, high glucose + palmitate: palmitate 1.5 mM + 20 mM glucose
Method: […] Cell viability was measured by staining cells with propidium iodide (20 μg/ml) and bisbenzimide (5 μg/ml) for 20 min at 37°C. The medium was replaced with PBS and the red and blue fluorescence was detected using a Nikon Eclipse fluorescence TE2000-U microscope (Nikon Instruments, Amsterdam, the Netherlands). The ratio of red to blue was taken as a relative measure of cell death (necrosis and late apoptosis) and was quantified using the Image J software (National Institutes of Health).

EndoC-βH1 cells = test: EndoC-βH1 cell viability (PI, flow cytometry); type: cell-based, human; conditions: inhibitor 0.2, 0.5 or 1.0 μM; for cell death rates in EndoC-βH1 cells exposed to cytokines: 2-day incubation; for cell death rates in EndoC-βH1 cells exposed to high glucose + palmitate: 24h incubation
Method: […] Cells were then vital stained with 10 μg/ml propidium iodide (PI) for 10 min at 37°C. Free-floating cells and cells attached to the culture dish were washed separately with PBS, pooled and examined by flow cytometry using a FACSCalibur (BD Biosciences, Franklin Lakes, NJ, USA). In each experimental group 10000 cells were examined and gated by PI intensity and FSC signal. The percentage of dead cells was analyzed using […] software (BD Biosciences).

human islet cells [3] = test: ROS production in human islets (DCF fluorescence); type: cell-based; conditions: palmitate 1.5 mM + 20 mM glucose 24h, inhibitor during last 3h: DPI 0.2 μM, Dapsone 10 μM, GLX351322 10 μM, GLX481372 6 μM
Nox4 = biological target: T1, Nox4 (Homo sapiens, UniProt Q9NPH5); conditions: cited from earlier work
T1 construct: host or cells: HEK 293 (CJ, constitutive) and T-REx-293 (tetracycline-inducible)
T1 sequence (Q9NPH5 1-578): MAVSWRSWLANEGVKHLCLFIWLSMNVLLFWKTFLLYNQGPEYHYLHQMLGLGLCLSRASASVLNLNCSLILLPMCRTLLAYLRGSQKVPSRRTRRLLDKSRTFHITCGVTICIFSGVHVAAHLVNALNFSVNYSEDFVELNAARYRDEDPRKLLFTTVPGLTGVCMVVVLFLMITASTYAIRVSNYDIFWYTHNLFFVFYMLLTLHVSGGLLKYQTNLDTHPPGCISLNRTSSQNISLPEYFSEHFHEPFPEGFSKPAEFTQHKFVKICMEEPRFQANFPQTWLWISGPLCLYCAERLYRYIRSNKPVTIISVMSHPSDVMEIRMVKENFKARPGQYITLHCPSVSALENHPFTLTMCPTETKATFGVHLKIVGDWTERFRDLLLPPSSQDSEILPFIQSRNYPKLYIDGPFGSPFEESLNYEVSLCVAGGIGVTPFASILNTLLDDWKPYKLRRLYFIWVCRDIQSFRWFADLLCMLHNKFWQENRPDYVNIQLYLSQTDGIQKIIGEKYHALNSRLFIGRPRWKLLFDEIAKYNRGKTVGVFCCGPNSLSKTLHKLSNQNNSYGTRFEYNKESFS
T1 sequence (P13498 2-195 partner limits assumed): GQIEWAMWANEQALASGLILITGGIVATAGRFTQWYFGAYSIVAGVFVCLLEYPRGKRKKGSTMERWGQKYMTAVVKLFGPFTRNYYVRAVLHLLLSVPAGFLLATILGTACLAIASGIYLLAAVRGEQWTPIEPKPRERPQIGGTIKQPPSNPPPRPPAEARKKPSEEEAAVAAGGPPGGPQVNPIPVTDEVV

DUOX1 = system: DUOX1; set-up: method as in PMID 24053146; conditions: cited from earlier work

Row | Compound | activation of caspase 3 in human islets (caspase 3) | IC50 (Nox2) | XO inhibition (XO) | human islet cell death, cytokines (human islet cells [2]) | human islet cell death, high glucose + palmitate (human islet cells [2]) | cell death rates in EndoC-βH1 cells exposed to cytokines (EndoC-βH1 cells) | cell death rates in EndoC-βH1 cells exposed to high glucose + palmitate (EndoC-βH1 cells) | also measured
1 | c1ccc2c(c1)[I+]c1ccccc1-2 [DPI, diphenyleneiodoniumchloride] | reduced activation of caspase 3 | […] | Yes | – | – | – | – | IC50 values for all Nox enzymes (all Nox enzymes): nM range
2 | CCOC(=O)c1c(NC(=O)CN2CCN(C(=O)c3ccco3)CC2)sc2c1CCC2 [GLX351322] | reduced activation of caspase 3 | 40 µM | Inactive | – | – | – | – | high-fat diet-induced glucose intolerance [1]: amelioration of high-fat diet-induced glucose intolerance; high glucose-induced inhibition of human islet insulin release and survival (human islet): protected against high glucose-induced inhibition of human islet insulin release and survival
3 | CC(=O)c1ccc2c(c1)Nc1ccccc1S2 [ML171] | – | […] | – | failed to reduce human islet cell death | failed to reduce human islet cell death | failed to affect cell death rates | failed to affect cell death rates | IC50 (XO; read-out: XO inhibition): 5.5 µM
4 | O=[N+]([O-])c1cccc(C2Nc3ccc([N+](=O)[O-])cc3C3C=CCC32)c1 (stereo not shown) [Phox-I2] | – | 1 µM | – | failed to protect | partially protected | failed to affect cell death rates | failed to affect cell death rates | –
5 | Nc1ccc(S(=O)(=O)c2ccc(N)cc2)cc1 [dapsone] | reduced activation of caspase 3 | – | – | – | – | – | – | human islet ROS production (DCF/DAPI ratio) (human islet cells [3]): reduced human islet ROS production; human islet cell viability (PI and Bisbenzimide ratio) (human islet cells [2]; palmitate + high glucose 24h, inhibitor throughout: DPI 0.2 μM, Dapsone 10 μM, GLX351322 10 μM, GLX481372 6 μM): improved viability; inhibition of expression/activity of Nox4 (Nox4): μM concentrations; inhibition of expression/activity of DUOX1 (DUOX1): μM concentrations
